Article PMC11441106 (Journal of medicinal chemistry, 2024)

What was measured:
in vivo = conditions: rat
α 1D = biological target: T1, α 1D (Homo sapiens, UniProt P25100); assay: NIMH-PDSP broad-panel counter screening; conditions: read-out: % inhibition (10 μM)
T1 sequence (P25100 1-572): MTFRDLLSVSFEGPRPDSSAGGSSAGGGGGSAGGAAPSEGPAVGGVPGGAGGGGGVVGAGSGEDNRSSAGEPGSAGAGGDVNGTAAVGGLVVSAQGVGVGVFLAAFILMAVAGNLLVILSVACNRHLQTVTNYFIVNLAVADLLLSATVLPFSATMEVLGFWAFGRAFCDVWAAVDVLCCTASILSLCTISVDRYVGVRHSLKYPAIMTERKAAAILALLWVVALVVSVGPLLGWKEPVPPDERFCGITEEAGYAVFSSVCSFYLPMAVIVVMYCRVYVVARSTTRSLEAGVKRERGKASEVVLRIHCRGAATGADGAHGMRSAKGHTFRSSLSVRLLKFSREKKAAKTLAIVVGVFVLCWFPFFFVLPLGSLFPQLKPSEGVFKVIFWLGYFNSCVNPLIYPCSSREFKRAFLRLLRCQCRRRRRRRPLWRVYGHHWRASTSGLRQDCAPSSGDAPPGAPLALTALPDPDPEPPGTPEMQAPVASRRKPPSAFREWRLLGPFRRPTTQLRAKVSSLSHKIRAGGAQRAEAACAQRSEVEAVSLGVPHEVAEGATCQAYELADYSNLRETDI

hERG = hERG (Homo sapiens, UniProt Q12809); assay type: binding
Sequence of hERG (Q12809 whole entry): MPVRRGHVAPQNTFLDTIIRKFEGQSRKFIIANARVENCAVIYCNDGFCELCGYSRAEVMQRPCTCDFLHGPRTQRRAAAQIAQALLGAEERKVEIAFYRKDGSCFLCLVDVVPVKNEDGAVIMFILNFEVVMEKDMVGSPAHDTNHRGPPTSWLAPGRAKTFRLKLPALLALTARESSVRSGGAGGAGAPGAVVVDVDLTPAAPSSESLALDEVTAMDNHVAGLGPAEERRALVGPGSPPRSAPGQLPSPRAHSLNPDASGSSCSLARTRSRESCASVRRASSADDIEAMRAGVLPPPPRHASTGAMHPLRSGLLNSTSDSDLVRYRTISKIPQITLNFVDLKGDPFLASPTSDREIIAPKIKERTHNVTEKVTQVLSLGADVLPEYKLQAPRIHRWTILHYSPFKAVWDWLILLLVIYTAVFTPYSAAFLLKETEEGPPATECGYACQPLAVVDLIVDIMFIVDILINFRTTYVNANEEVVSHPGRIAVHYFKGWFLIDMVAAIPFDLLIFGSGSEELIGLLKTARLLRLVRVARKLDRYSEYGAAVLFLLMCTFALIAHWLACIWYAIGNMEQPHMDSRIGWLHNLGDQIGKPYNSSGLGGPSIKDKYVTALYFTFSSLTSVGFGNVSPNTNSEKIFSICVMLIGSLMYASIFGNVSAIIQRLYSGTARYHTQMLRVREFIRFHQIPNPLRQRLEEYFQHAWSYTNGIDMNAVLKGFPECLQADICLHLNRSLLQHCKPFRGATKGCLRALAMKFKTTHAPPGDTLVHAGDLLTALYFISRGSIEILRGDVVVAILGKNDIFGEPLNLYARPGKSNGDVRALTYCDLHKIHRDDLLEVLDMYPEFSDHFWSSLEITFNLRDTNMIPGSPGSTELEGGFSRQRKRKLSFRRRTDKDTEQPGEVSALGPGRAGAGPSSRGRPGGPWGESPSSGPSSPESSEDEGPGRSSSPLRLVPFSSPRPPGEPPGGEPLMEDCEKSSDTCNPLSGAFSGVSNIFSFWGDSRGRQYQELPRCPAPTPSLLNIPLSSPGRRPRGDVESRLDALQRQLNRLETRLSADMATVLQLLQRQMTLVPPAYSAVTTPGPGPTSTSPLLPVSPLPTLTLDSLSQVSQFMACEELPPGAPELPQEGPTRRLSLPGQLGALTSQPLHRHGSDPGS

GABAA = assay: NIMH-PDSP broad-panel counter screening
D1R = D1R (Homo sapiens, UniProt P21728); assay: Tango β-arrestin recruitment at D1R; assay type: cell-based; conditions: Tango assay
Sequence of D1R (P21728 whole entry): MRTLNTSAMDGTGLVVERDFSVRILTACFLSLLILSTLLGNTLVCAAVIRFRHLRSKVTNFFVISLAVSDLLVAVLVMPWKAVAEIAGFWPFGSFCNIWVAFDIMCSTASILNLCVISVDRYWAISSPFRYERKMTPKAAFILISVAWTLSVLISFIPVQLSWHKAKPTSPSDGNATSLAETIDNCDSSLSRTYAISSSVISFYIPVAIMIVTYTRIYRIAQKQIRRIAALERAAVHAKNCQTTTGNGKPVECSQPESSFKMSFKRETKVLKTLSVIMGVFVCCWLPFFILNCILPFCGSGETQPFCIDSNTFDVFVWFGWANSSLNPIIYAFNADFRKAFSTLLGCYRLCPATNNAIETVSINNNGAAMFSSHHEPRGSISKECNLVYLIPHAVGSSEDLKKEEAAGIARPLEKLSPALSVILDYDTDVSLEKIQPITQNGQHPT

Cc1c(Nc2cc(Cc3cccc(C(F)(F)F)c3)ccn2)cccc1C(=O)NCCO [Compound 15b, N-(2-Hydroxyethyl)-2-methyl-3-((4-(3-(trifluoromethyl)benzyl)-pyridin-2-yl)amino)benzamide]
Vd (in vivo; male, Sprague-Dawley, plasma, iv, 10 mg/kg): 1.85 L/kg
CL (in vivo; in vivo, po, 20 mg/kg): 6.2 ± 2.1 L/h/kg
inhibition at 10 µM (α 1D): -10.5%
hERG inhibition or binding affinity (hERG): did not show inhibition or binding affinity
% inhibition (10 μM) (GABAA): −17.94%

O=C(NCCO)c1cccc2c1CCN2c1cc(Cc2cccc(C(F)(F)F)c2)ccn1 [Compound 4a]
β-arrestin recruitment response at D1R (D1R): no response
